{"source": "patent US8828906B2", "about": "“Active compound combinations having insecticidal and acaricidal properties” (Bayer CropScience AG, priority 2009, dated 2014)", "format_in_all_cases": "in vivo", "key": {"[1]": {"system": "Myzus persicae", "test": "Myzus persicae test on cabbage", "conditions": "cabbage leaves sprayed", "method": "(§1) Solvents: 78 parts by weight of acetone\n(§2) • 1.5 parts by weight of dimethylformamide Emulsifier: 0.5 part by weight of alkylaryl polyglycol ether\n(§3) To produce a suitable preparation of active compound, 1 part by weight of active compound is mixed with the stated amount of solvent and emulsifier, and the concentrate is diluted with emulsifier-containing water to the desired concentration.\nCabbage leaves (Brassica oleracea) which are heavily infested by the green peach aphid (Myzus persicae) are treated by spraying with the active compound preparation of the desired concentration.\n(§4) After the desired period of time, the kill in % is determined. 100% means that all of the aphids have been killed; 0% means that none of the aphids have been killed. The kill rates determined are entered into Colby's formula (see above)."}, "[2]": {"system": "Phaedon cochleariae", "test": "Phaedon cochleariae larvae test", "conditions": "cabbage leaves sprayed", "method": "as §1, §2, §3\nCabbage leaves (Brassica oleracea) are treated by spraying with the active ingredient formulation of the desired concentration and populated with larvae of the mustard beetle (Phaedon cochleariae) while the leaves are still moist.\nAfter the desired period of time, the kill in % is determined. 100% means that all beetle larvae have been killed; 0% means that none of the beetle larvae have been killed. The kill rates determined are entered into Colby's formula (see above)."}, "[3]": {"system": "Tetranychus urticae", "test": "Tetranychus urticae test (OP-resistant/spray treatment)", "conditions": "bean leaf discs sprayed", "method": "as §1, §2, §3\nDiscs of bean leaves (Phaseolus vulgaris) which are infested by all stages of the greenhouse red spider mite (Tetranychus urticae) are sprayed with an active compound preparation of the desired concentration.\nAfter the desired period of time, the effect in % is determined. 100% means that all of the spider mites have been killed; 0% means that none of the spider mites have been killed."}, "[4]": {"system": "Spodoptera frugiperda", "test": "Spodoptera frugiperda larvae test", "conditions": "cabbage leaves sprayed", "method": "as §1, §2, §3\nCabbage leaves (Brassica oleracea) are treated by being sprayed with the preparation of active compound of the desired concentration and are populated with larvae of the armyworm (Spodoptera frugiperda) while the leaves are still moist.\nAfter the desired period of time, the kill in % is determined. 100% means that all caterpillars have been killed; 0% means that none of the caterpillars have been killed. The kill rates determined are entered into Colby's formula (see above)."}, "[5]": {"system": "Myzus persicae", "test": "Myzus persicae test on bell pepper", "conditions": "0.8 g/ha, bell-pepper plants sprayed", "method": "Solvent: 7 parts by weight of dimethylformamide\nEmulsifier: 2 parts by weight of alkylaryl polyglycol ether\nas §3\nBell-pepper plants (Capsicum annuum) which are heavily infested by the green peach aphid (Myzus persicae) are treated by spraying with the active compound preparation of the desired concentration.\nas §4"}}}
{"smiles": "CC1(C)C(C=C(Cl)Cl)C1C(=O)OC(C#N)c1cccc(Oc2ccccc2)c1", "note": "(stereo not drawn) [alpha-cypermethrin]", "values": [{"measurement": "Kill in % after 1d", "setting": "[1]; 0.16 g/ha", "value": 30, "unit": "%"}]}
{"smiles": "CC1(C)C(C=C(Cl)Cl)C1C(=O)OC(C#N)c1ccc(F)c(Oc2ccccc2)c1", "note": "(stereo not drawn) [beta-cyfluthrin]", "values": [{"measurement": "Kill in % after 1d", "setting": "[1]; 0.16 g/ha", "value": 40, "unit": "%"}, {"measurement": "Kill in % after 2d", "setting": "[2]; 0.8 g/ha", "value": 50, "unit": "%"}, {"measurement": "Kill in % after 2d", "setting": "[2]; 4 g/ha", "value": 83, "unit": "%"}]}
{"smiles": "Cc1c(COC(=O)C2C(/C=C(\\Cl)C(F)(F)F)C2(C)C)cccc1-c1ccccc1", "note": "(stereo not drawn) [bifenthrin]", "values": [{"measurement": "Kill in % after 2d", "setting": "[3]; 4 g/ha", "value": 30, "unit": "%"}, {"measurement": "Kill in % after 6d", "setting": "[1]; 0.032 g/ha", "value": 0, "unit": "%"}, {"measurement": "Kill in % after 1d", "setting": "[1]; 0.16 g/ha", "value": 20, "unit": "%"}, {"measurement": "Kill in % after 2d", "setting": "[2]; 4 g/ha", "value": 67, "unit": "%"}]}
{"smiles": "O=C1C=C(N(CCF)Cc2ccc(Cl)nc2)CO1", "note": "[compound (I-4), 4-{[(6-chloropyrid-3-yl)methyl](2-fluoroethyl)amino}furan-2(5H)-one]", "values": [{"measurement": "Kill in % after 2d", "setting": "[3]; 100 g/ha", "value": 0, "unit": "%"}, {"measurement": "Kill in % after 1d", "setting": "[1]; 4 g/ha", "value": 30, "unit": "%"}, {"measurement": "Kill in % after 6d", "setting": "[2]; 20 g/ha", "value": 0, "unit": "%"}, {"measurement": "Kill in % after 6d", "setting": "[2]; 100 g/ha", "value": 0, "unit": "%"}, {"measurement": "Kill in % after 2d", "setting": "[4]; 20 g/ha", "value": 0, "unit": "%"}, {"measurement": "Kill in % after 2d", "setting": "[4]; 100 g/ha", "value": 0, "unit": "%"}]}
{"smiles": "O=C1C=C(N(Cc2ccc(Cl)nc2)CC(F)F)CO1", "note": "[compound (I-5), 4-{[(6-chloropyrid-3-yl)methyl](2,2-difluoroethyl)amino}furan-2(5H)-one]", "values": [{"measurement": "Kill in % after 6d", "setting": "[5]", "value": 45, "unit": "%"}, {"measurement": "Kill in % after 1d", "setting": "[1]; 0.8 g/ha", "value": 10, "unit": "%"}, {"measurement": "Kill in % after 6d", "setting": "[1]; 0.8 g/ha", "value": 10, "unit": "%"}, {"measurement": "Kill in % after 2d", "setting": "[2]; 20 g/ha", "value": 0, "unit": "%"}, {"measurement": "Kill in % after 2d", "setting": "[4]; 20 g/ha", "value": 0, "unit": "%"}, {"measurement": "Kill in % after 2d", "setting": "[4]; 100 g/ha", "value": 0, "unit": "%"}]}
{"smiles": "CN(Cc1cnc(Cl)c(F)c1)C1=CC(=O)OC1", "note": "[compound (I-6), 4-{[(6-chloro-5-fluorpyrid-3-yl)methyl](methyl)amino}furan-2(5H)-one]", "values": [{"measurement": "Kill in % after 2d", "setting": "[2]; 4 g/ha", "value": 0, "unit": "%"}, {"measurement": "Kill in % after 2d", "setting": "[2]; 100 g/ha", "value": 0, "unit": "%"}, {"measurement": "Kill in % after 6d", "setting": "[2]; 100 g/ha", "value": 0, "unit": "%"}, {"measurement": "Kill in % after 2d", "setting": "[4]; 20 g/ha", "value": 0, "unit": "%"}, {"measurement": "Kill in % after 2d", "setting": "[4]; 100 g/ha", "value": 0, "unit": "%"}]}
{"smiles": "CC1(C)C(C=C(Cl)Cl)C1C(=O)OC(C#N)c1cccc(Oc2ccccc2)c1", "note": "(stereo not drawn) [cypermethrin]", "values": [{"measurement": "Kill in % after 1d", "setting": "[1]; 0.16 g/ha", "value": 10, "unit": "%"}, {"measurement": "Kill in % after 1d", "setting": "[1]; 0.8 g/ha", "value": 20, "unit": "%"}]}
{"smiles": "CC1(C)[C@H](C(=O)OC(C#N)c2cccc(Oc3ccccc3)c2)[C@@H]1C=C(Br)Br", "note": "(stereo partly drawn) [deltamethrin]", "values": [{"measurement": "Kill in % after 6d", "setting": "[1]; 0.032 g/ha", "value": 0, "unit": "%"}, {"measurement": "Kill in % after 2d", "setting": "[4]; 0.8 g/ha", "value": 50, "unit": "%"}]}
{"smiles": "CC1(C)[C@H](C(=O)O[C@@H](C#N)c2cccc(Oc3ccccc3)c2)[C@@H]1/C=C(\\Cl)C(F)(F)F", "note": "[gamma-cyhalothrin]", "values": [{"measurement": "Kill in % after 1d", "setting": "[1]; 0.16 g/ha", "value": 0, "unit": "%"}, {"measurement": "Kill in % after 2d", "setting": "[4]; 4 g/ha", "value": 67, "unit": "%"}]}
{"smiles": "CC1(C)C(/C=C(\\Cl)C(F)(F)F)C1C(=O)OC(C#N)c1cccc(Oc2ccccc2)c1", "note": "(stereo not drawn) [lambda-cyhalothrin]", "values": [{"measurement": "Kill in % after 2d", "setting": "[3]; 4 g/ha", "value": 0, "unit": "%"}, {"measurement": "Kill in % after 1d", "setting": "[1]; 0.032 g/ha", "value": 0, "unit": "%"}, {"measurement": "Kill in % after 2d", "setting": "[2]; 0.16 g/ha", "value": 33, "unit": "%"}, {"measurement": "Kill in % after 2d", "setting": "[4]; 4 g/ha", "value": 33, "unit": "%"}]}
{"smiles": "CC1(C)[C@H](C=C(Cl)Cl)[C@H]1C(=O)OCc1c(F)c(F)cc(F)c1F", "note": "[transfluthrin]", "values": [{"measurement": "Kill in % after 6d", "setting": "[5]", "value": 0, "unit": "%"}]}
